Measured values reported in US8852554B2, “Radiolabelled PDE10 ligands” (Janssen Pharmaceutica NV, priority 2009, dated 2014).
“And” between values parts separate entries of the source, which are not always exact repeats. Equal entries are not always repeated.

Experiment: Biodistribution studies of the 18F tracers in rats
Format: in vivo, male Wistar rats
Conditions: rat, i.v.
Protocol: Biodistribution studies were carried out in healthy male Wister rats (body weight 200-500 g) at 2 min, 30 min and 60 min post injection (p.i.) (n=3/time point). For |^18F|B-4 only the 2 min and 30 min time points were studied. […] Blood and major organs were collected in tared tubes and weighed. The radioactivity in blood, organs and other body parts was measured using an automated gamma counter. The distribution of radioactivity in different parts of the body at different time points p.i. of the tracer was calculated and expressed as percentage of injected dose (% ID), and as percentage of injected dose per gram tissue (% ID/g) for the selected organs. % ID is calculated as cpm in organ/total cpm recovered. For calculation of total radioactivity in blood, blood mass was assumed to be 7% of the body mass.

% ID/g, Blood (30 min p.i.): 0.12 ± 0.01 % ID/g
% ID/g, Cerebellum (30 min p.i.): 0.145 ± 0.020 % ID/g
% ID/g, Cerebrum + Cerebellum (30 min p.i.): 0.15 ± 0.02 % ID/g
% ID/g, Cerebrum total (30 min p.i.): 0.148 ± 0.014 % ID/g
% ID/g, Cortex (30 min p.i.): 0.204 ± 0.016 % ID/g
% ID/g, Heart (30 min p.i.): 0.24 ± 0.03 % ID/g
% ID/g, Hippocampus (30 min p.i.): 0.096 ± 0.012 % ID/g
% ID/g, Kidneys (30 min p.i.): 0.61 ± 0.11 % ID/g
% ID/g, Liver (30 min p.i.): 3.72 ± 0.87 % ID/g
% ID/g, Lungs (30 min p.i.): 0.27 ± 0.04 % ID/g
% ID/g, Rest of cerebrum (30 min p.i.): 0.138 ± 0.013 % ID/g
% ID/g, Spleen + Pancreas (30 min p.i.): 0.39 ± 0.04 % ID/g
% ID/g, Striatum (30 min p.i.): 0.250 ± 0.029 % ID/g
% ID in liver and intestines (60 min p.i.): 54 % ID
% ID in the urinary system (60 min p.i.): ~2.6 % ID
% ID, Blood (60 min p.i.): 2.2 % ID and 2.16 ± 0.4 % ID
% ID, Carcass (60 min p.i.): 23.68 ± 3.9 % ID
% ID, Cerebellum (60 min p.i.): 0.023 ± 0.005 % ID
% ID, Cerebrum total (60 min p.i.): 0.145 ± 0.032 % ID
% ID, Cortex (60 min p.i.): 0.018 ± 0.004 % ID
% ID, Heart (60 min p.i.): 0.16 ± 0.0 % ID
% ID, Hippocampus (60 min p.i.): 0.005 ± 0.001 % ID
% ID, Intestines (60 min p.i.): 19.61 ± 1.5 % ID
% ID, Kidneys (60 min p.i.): 1.38 ± 0.1 % ID
% ID, Liver (60 min p.i.): 34.49 ± 8.0 % ID
% ID, Lungs (60 min p.i.): 0.26 ± 0.1 % ID
% ID, Rest of cerebrum (60 min p.i.): 0.116 ± 0.027 % ID
% ID, Spleen + Pancreas (60 min p.i.): 0.43 ± 0.1 % ID
% ID, Stomach (60 min p.i.): 17 % ID and 16.74 ± 4.6 % ID
% ID, Striatum (60 min p.i.): 0.006 ± 0.002 % ID
% ID, Urine (60 min p.i.): 1.22 ± 0.2 % ID
% ID/g, Blood (60 min p.i.): 0.10 ± 0.02 % ID/g
% ID/g, Cerebellum (60 min p.i.): 0.079 ± 0.021 % ID/g
% ID/g, Cerebrum + Cerebellum (60 min p.i.): 0.10 ± 0.03 % ID/g
% ID/g, Cerebrum total (60 min p.i.): 0.105 ± 0.035 % ID/g
% ID/g, Cortex (60 min p.i.): 0.113 ± 0.031 % ID/g
% ID/g, Heart (60 min p.i.): 0.15 ± 0.04 % ID/g
% ID/g, Hippocampus (60 min p.i.): 0.074 ± 0.050 % ID/g
% ID/g, Kidneys (60 min p.i.): 0.46 ± 0.02 % ID/g
% ID/g, Liver (60 min p.i.): 2.53 ± 0.23 % ID/g
% ID/g, Lungs (60 min p.i.): 0.16 ± 0.05 % ID/g
% ID/g, Rest of cerebrum (60 min p.i.): 0.107 ± 0.030 % ID/g
% ID/g, Spleen + Pancreas (60 min p.i.): 0.26 ± 0.07 % ID/g
% ID/g, Striatum (60 min p.i.): 0.162 ± 0.042 % ID/g
% ID in the carcass (at all time points examined): ~28 % ID
maximum striatum-to-cerebellum ratio (biodistribution 2-60 min p.i.): about 2
Structure (SMILES): Cc1cccc(COc2ccc(-c3nn(CC[18F])cc3-c3ccncc3)cc2)n1 [[^18F]B-1]
% ID/g normalized for body weight, Cerebellum (30 min p.i.): 0.041 ± 0.01 % ID/g × body wt. in kg
% ID/g normalized for body weight, Cerebrum + Cerebellum (30 min p.i.): 0.04 ± 0.01 % ID/g × body wt. in kg
% ID/g normalized for body weight, Cerebrum total (30 min p.i.): 0.042 ± 0.01 % ID/g × body wt. in kg
% ID/g normalized for body weight, Cortex (30 min p.i.): 0.057 ± 0.01 % ID/g × body wt. in kg
% ID/g normalized for body weight, Heart (30 min p.i.): 0.07 ± 0.01 % ID/g × body wt. in kg
% ID/g normalized for body weight, Hippocampus (30 min p.i.): 0.027 ± 0.01 % ID/g × body wt. in kg
% ID/g normalized for body weight, Kidneys (30 min p.i.): 0.17 ± 0.01 % ID/g × body wt. in kg
% ID/g normalized for body weight, Liver (30 min p.i.): 1.02 ± 0.13 % ID/g × body wt. in kg
% ID/g normalized for body weight, Lungs (30 min p.i.): 0.08 ± 0.02 % ID/g × body wt. in kg
% ID/g normalized for body weight, Rest of cerebrum (30 min p.i.): 0.039 ± 0.01 % ID/g × body wt. in kg
% ID/g normalized for body weight, Spleen + Pancreas (30 min p.i.): 0.11 ± 0.02 % ID/g × body wt. in kg
% ID/g normalized for body weight, Striatum (30 min p.i.): 0.070 ± 0.01 % ID/g × body wt. in kg
radioactivity concentration, all studied brain regions (30 min p.i.): ≤ 0.07 % ID/g corrected for body weight
striatum/blood ratio (from % ID/g normalized for body weight) (30 min p.i.): 2.05
striatum/cerebellum ratio (from % ID/g normalized for body weight) (30 min p.i.): 1.72
striatum/hippocampus ratio (from % ID/g normalized for body weight) (30 min p.i.): 2.59
% ID/g normalized for body weight, Blood (60 min p.i.): 0.03 ± 0.01 % ID/g × body wt. in kg
% ID/g normalized for body weight, Cerebellum (60 min p.i.): 0.025 ± 0.01 % ID/g × body wt. in kg
% ID/g normalized for body weight, Cerebrum + Cerebellum (60 min p.i.): 0.03 ± 0.01 % ID/g × body wt. in kg
% ID/g normalized for body weight, Cerebrum total (60 min p.i.): 0.033 ± 0.01 % ID/g × body wt. in kg
% ID/g normalized for body weight, Cortex (60 min p.i.): 0.036 ± 0.01 % ID/g × body wt. in kg
% ID/g normalized for body weight, Heart (60 min p.i.): 0.05 ± 0.01 % ID/g × body wt. in kg
% ID/g normalized for body weight, Hippocampus (60 min p.i.): 0.023 ± 0.02 % ID/g × body wt. in kg
% ID/g normalized for body weight, Kidneys (60 min p.i.): 0.15 ± 0.01 % ID/g × body wt. in kg
% ID/g normalized for body weight, Liver (60 min p.i.): 0.81 ± 0.13 % ID/g × body wt. in kg
% ID/g normalized for body weight, Lungs (60 min p.i.): 0.05 ± 0.02 % ID/g × body wt. in kg
% ID/g normalized for body weight, Rest of cerebrum (60 min p.i.): 0.034 ± 0.01 % ID/g × body wt. in kg
% ID/g normalized for body weight, Spleen + Pancreas (60 min p.i.): 0.08 ± 0.02 % ID/g × body wt. in kg
% ID/g normalized for body weight, Striatum (60 min p.i.): 0.051 ± 0.01 % ID/g × body wt. in kg
striatum/blood ratio (from % ID/g normalized for body weight) (60 min p.i.): 1.66
striatum/cerebellum ratio (from % ID/g normalized for body weight) (60 min p.i.): 2.06
striatum/hippocampus ratio (from % ID/g normalized for body weight) (60 min p.i.): 2.24
